Consider 6 compounds from BindingDB's records for patent US11993596 (Chia Tai Tianqing Pharmaceutical Group, 2024).

T1 sequence (Q07343 whole entry, looked up): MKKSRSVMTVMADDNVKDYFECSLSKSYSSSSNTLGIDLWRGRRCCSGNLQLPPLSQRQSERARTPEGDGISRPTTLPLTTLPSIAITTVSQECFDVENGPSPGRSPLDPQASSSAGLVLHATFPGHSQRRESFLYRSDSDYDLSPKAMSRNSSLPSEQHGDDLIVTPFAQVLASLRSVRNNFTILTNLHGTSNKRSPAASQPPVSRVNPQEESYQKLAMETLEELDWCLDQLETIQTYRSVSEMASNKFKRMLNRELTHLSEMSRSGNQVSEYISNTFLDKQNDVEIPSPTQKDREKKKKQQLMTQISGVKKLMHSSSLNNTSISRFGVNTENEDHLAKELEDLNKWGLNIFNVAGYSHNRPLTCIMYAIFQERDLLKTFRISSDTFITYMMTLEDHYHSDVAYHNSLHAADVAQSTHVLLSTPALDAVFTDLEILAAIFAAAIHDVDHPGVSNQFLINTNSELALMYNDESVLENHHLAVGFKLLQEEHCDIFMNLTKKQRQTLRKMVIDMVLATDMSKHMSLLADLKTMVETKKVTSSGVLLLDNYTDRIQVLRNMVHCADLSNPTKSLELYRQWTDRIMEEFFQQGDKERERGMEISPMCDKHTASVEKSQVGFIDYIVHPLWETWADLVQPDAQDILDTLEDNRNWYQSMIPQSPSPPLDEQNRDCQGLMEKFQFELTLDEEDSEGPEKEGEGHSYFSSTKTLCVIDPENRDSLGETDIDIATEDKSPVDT

This assay has as its target T1, 3',5'-cyclic-AMP phosphodiesterase 4B (Homo sapiens, UniProt Q07343).
T1 construct: gene PDE4B
Description: In Vitro Detection of the Inhibitory Activity of Compounds Against PDE 4B Enzyme. The procedure:
The recombinant human PDE4B enzyme and enzyme substrate (1 μM cAMP) were each dissolved in newly prepared experimental buffer solution;2. The PDE4B enzyme buffer solution was transferred into reaction wells;3. The compound which was dissolved in 100% DMSO was added to the reaction wells containing PDE4B enzyme buffer solution by acoustic technique (echo 550; […]) and the mixture was incubated for 10 minutes at room temperature;4. The enzyme substrate buffer solution was added to the above reaction wells to initiate reaction;5. The resulting mixture was incubated at room temperature for 1 hour;6. The detection mixture (Transcreener AMP2/GMP2 antibody and AMP2/GMP2 AlexaFluor633 tracer) was added to stop the reaction, and the resulting mixture was incubated for 90 minutes while slowly mixing.
Take `CCOc1cc2c(cc1OC)-c1c/c(=N\c3c(C)cc(C)cc3C)n(CCN3CCOC3=O)c(=O)n1CC2` [US11993596, Compound WX001]: the IC50 (as a rule, the concentration needed to halve the response being measured) is 6.5 nM.

The compound `CCOc1cc2c(cc1OC)-c1c/c(=N\c3c(C)cc(C)cc3C)n(CCNc3nc[nH]n3)c(=O)n1CC2` [US11993596, Compound WX003] showed a 50% inhibitory concentration (IC50) of 2.2 nM.

`CCOc1cc2c(cc1OC)-c1c/c(=N\c3c(C)cc(C)cc3C)n(CCNc3nncs3)c(=O)n1CC2` [US11993596, Compound WX005] showed a 50% inhibitory concentration (IC50) of 5.7 nM.

`CCOc1cc2c(cc1OC)-c1c/c(=N\c3c(C)cc(C)cc3C)n(CCNC(=O)c3nnc[nH]3)c(=O)n1CC2` [US11993596, Compound WX015] registered an IC50 of 0.56 nM.

Compound `CCOc1cc2c(cc1OC)-c1c/c(=N\c3c(C)cc(C)cc3C)n(CCC(=O)Nc3nnc[nH]3)c(=O)n1CC2` [US11993596, Compound WX054] had a half-inhibitory concentration (IC50) of 2.7 nM.

`CCOc1cc2c(cc1OC)-c1c/c(=N\c3c(C)cc(C)cc3C)n(CCN(O)C(=O)c3cnn[nH]3)c(=O)n1CC2` [US11993596, Compound WX064] came in with a half-maximal inhibitory concentration (IC50) of 1.4 nM.
